Source: patent US20150038435A1, “N-TERMINALLY MODIFIED OLIGOPEPTIDES AND USES THEREOF” (Novo Nordisk A/S, priority 2012, published 2015)
Starred links: 1 amine or outer side, 2 acyl side, 3 side chain; linkers in the order of their positions; H or OH if unused. Non-standard residues stand in square brackets, D forms with d. *: point of attachment. γGlu = O=C(O)[C@H](CCC(=O)[*:2])N[*:1]; C14 diacid = O=C(O)CCCCCCCCCCCCC(=O)*; Lauroyl = CCCCCCCCCCCC(=O)*

Tests used:
[1] = Hydrophobicity: retention time during reverse phase HPLC; type: physicochemical; conditions: Acquity CSH C18; pH 7.2 buffer/CH3CN gradient; 40° C.
Description: The retention time (RT) during reverse phase HPLC was taken as a measure of hydrophobicity of an N-terminally modified peptide or oligopeptide of the invention, where the connection is: The longer the RT, the more hydrophobic N-terminally modified peptide or oligopeptide. The following running conditions were applied during HPLC analysis:
Buffer B: 70% (v/v) aq. CH3CN

[2] = test system: Trypsin; assay: Inhibition of enzymatic degradation of a model GLP-1 (FRET substrate) by trypsin; type: biochemical
In short: (§1)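 MCA/DNP-labelled model GLP-1 FRET substrate (10 μl of 100 μM stock) in Dulbecco's PBS at 37° C with varying acylated peptide; fluorescence (ex 320/em 405 nm) read every minute for ≥30 min. Initial slopes from linear regression, duplicates averaged; EC50 by sigmoidal logistic fit of slope vs concentration.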

[3] = test system: Chymotrypsin; assay: Inhibition of enzymatic degradation of a model GLP-1 (FRET substrate) by chymotrypsin; type: biochemical
In short: as §1

[4] = compound 0.1 mM, buffer containing 8% DMSO

Row | EC50 ([2]; read-out: EC50 Trypsin (0.001 mg/ml), 0.001 mg/ml trypsin, 37° C.) [µM] | EC50 ([3]; read-out: EC50 Chymotrypsin (0.001 mg/ml), 0.001 mg/ml chymotrypsin, 37° C., ± standard error if at least 3 measurements) [µM] | Substance | RT (retention time during reverse phase HPLC as a measure of hydrophobicity) [1] [min] | Slope of the initial increase in fluorescence obtained during incubation with 0.001 mg/ml Trypsin [2, 4] | Slope of the initial increase in fluorescence obtained during incubation with 0.001 mg/ml Chymotrypsin [3, 4] | Slope of the initial increase in fluorescence obtained during incubation with 0.001 mg/ml Trypsin ([2]; compound 1 mM) | Slope of the initial increase in fluorescence obtained during incubation with 0.001 mg/ml Chymotrypsin ([3]; compound 1 mM)
1 |  |  | N-dodecanoyl-Ala-Arg-Pro-Tyr-OH (Lauroyl-ARPY-OH; SMILES CCCCCCCCCCCC(=O)N[C@@H](C)C(=O)N[C@@H](CCCNC(=N)N)C(=O)N1CCC[C@H]1C(=O)N[C@@H](Cc1ccc(O)cc1)C(=O)O) [Example 73] | 5.34 | 1.67 | 0.08 |  | 
2 |  |  | N-dodecanoyl-Ala-Ala-Leu-Tyr-OH (Lauroyl-AALY-OH; SMILES CCCCCCCCCCCC(=O)N[C@@H](C)C(=O)N[C@@H](C)C(=O)N[C@@H](CC(C)C)C(=O)N[C@@H](Cc1ccc(O)cc1)C(=O)O) [Example 66] | 7.18 | 1.98 | 0.18 |  | 
3 |  |  | N-dodecanoyl-Ala-Trp-Pro-Tyr-OH (Lauroyl-AWPY-OH; SMILES CCCCCCCCCCCC(=O)N[C@@H](C)C(=O)N[C@@H](Cc1c[nH]c2ccccc12)C(=O)N1CCC[C@H]1C(=O)N[C@@H](Cc1ccc(O)cc1)C(=O)O) [Example 88] | 7.88 | 0.80 | 0.11 |  | 
4 |  |  | N-dodecanoyl-Asp-Pro-Tyr-OH [Example 115] | 3.91 | 1.73 | 2.04 |  | 
5 |  |  | N-dodecanoyl-Ser-Pro-Tyr-OH [Example 107] | 5.58 | 1.99 | 0.89 |  | 
6 |  |  | N-dodecanoyl-Ala-Ala-Pro-Leu-OH (Lauroyl-AAPL-OH; SMILES CCCCCCCCCCCC(=O)N[C@@H](C)C(=O)N[C@@H](C)C(=O)N1CCC[C@H]1C(=O)N[C@@H](CC(C)C)C(=O)O) [Example 11] | 1.22 |  |  | 3.06 | 0.77
7 | 38 | 121 | N-dodecanoyl-Ala-Ala-Ala-Ala-Pro-Phe-OH [Example 19] | 6.57 |  |  |  | 
8 |  |  | N-dodecanoyl-Ile-Ala-Pro-Tyr-OH (Lauroyl-IAPY-OH; SMILES CCCCCCCCCCCC(=O)N[C@H](C(=O)N[C@@H](C)C(=O)N1CCC[C@H]1C(=O)N[C@@H](Cc1ccc(O)cc1)C(=O)O)[C@@H](C)CC) [Example 41] | 7.76 | 1.96 | 0.84 |  | 
9 |  |  | N-dodecanoyl-Asn-Ala-Ala-Pro-Tyr-OH [Example 93] | 4.84 | 1.90 | 0.14 |  | 
10 |  |  | N-tetradecandioyl-Ala-Ala-Pro-Phe-OH ({C14 diacid}-AAPF-OH) [Example 16] | 3.11 |  |  | 3.23 | 0.14
11 |  |  | N-dodecanoyl-Ala-Thr-Pro-Tyr-OH (Lauroyl-ATPY-OH; SMILES CCCCCCCCCCCC(=O)N[C@@H](C)C(=O)N[C@H](C(=O)N1CCC[C@H]1C(=O)N[C@@H](Cc1ccc(O)cc1)C(=O)O)[C@@H](C)O) [Example 87] | 5.76 | 1.91 | 0.48 |  | 
12 |  |  | N-dodecanoyl-OEG-OEG-Phe-OEG-OH [Example 130] | 6.21 |  |  | 0.67 | 0.54
13 |  |  | N-dodecanoyl-Ala-Ala-Ala-Tyr-OH (Lauroyl-AAAY-OH; SMILES CCCCCCCCCCCC(=O)N[C@@H](C)C(=O)N[C@@H](C)C(=O)N[C@@H](C)C(=O)N[C@@H](Cc1ccc(O)cc1)C(=O)O) [Example 57] | 5.73 | 1.59 | 1.65 |  | 
14 |  |  | N-dodecanoyl-OEG-OEG-Phe-OH [Example 128] | 3.08 |  |  | 0.35 | 0.86
15 |  |  | N-dodecanoyl-γGlu-Ala-Pro-Tyr-OH (Lauroyl-[γGlu]APY-OH; SMILES CCCCCCCCCCCC(=O)N[C@@H](CCC(=O)N[C@@H](C)C(=O)N1CCC[C@H]1C(=O)N[C@@H](Cc1ccc(O)cc1)C(=O)O)C(=O)O) [Example 98] | 3.79 | 1.53 | 1.39 |  | 
16 |  |  | N-dodecanoyl-γGlu-γGlu-Ala-Ala-Pro-Tyr-OH [Example 99] | 3.41 | 1.52 | 0.35 |  | 
17 |  |  | N-dodecanoyl-Ala-Leu-Pro-Tyr-OH (Lauroyl-ALPY-OH; SMILES CCCCCCCCCCCC(=O)N[C@@H](C)C(=O)N[C@@H](CC(C)C)C(=O)N1CCC[C@H]1C(=O)N[C@@H](Cc1ccc(O)cc1)C(=O)O) [Example 81] | 7.38 | 1.90 | 0.40 |  | 
18 |  |  | N-dodecanoyl-Ala-Val-Tyr-OH [Example 112] | 6.6 | 2.35 | 1.44 |  | 
19 |  |  | N-dodecanoyl-Ala-Gln-Pro-Tyr-OH (Lauroyl-AQPY-OH; SMILES CCCCCCCCCCCC(=O)N[C@@H](C)C(=O)N[C@@H](CCC(N)=O)C(=O)N1CCC[C@H]1C(=O)N[C@@H](Cc1ccc(O)cc1)C(=O)O) [Example 76] | 5.26 | 2.22 | 0.85 |  | 
20 |  |  | N-dodecanoyl-γGlu-Ala-Ala-Pro-Tyr-OH [Example 97] | 3.79 | 1.31 | 0.55 |  | 
21 |  |  | Ala-Ala-Pro-Phe-OH [Example 14] | 3.08 |  |  | 4.46 | 3.53
